Reference: US20230149507A1, “TREATMENT OF ALT CANCERS” (INSTITUTO DE MEDICINA MOLECULAR JOÃO LOBO ANTUNES, priority 2019, published 2023)

What was measured:
Assay type in all cases: cell-based, human
U-2 OS cells [1] = test: C-circle assay in cells overexpressing FANCM variants; details: stable overexpression, compared to vector control
Description: (§1) (a) Schematic of FANCM domain interactions, mutations or deletions. For clarity, domains have been color coded by functional role (bottom panel). (b) Quantitation of metaphase-TIFs in U-2 OS cells stably overexpressing wild-type (FANCM+) or FANCM mutants. Scatterplot bars represent the mean±SEM. Out of 3 experiments, n≥110 metaphases scored for each mutant, *p<0.05, **p<0.005, Mann-Whitney test. (c) Quantitation of fragile telomeres in U-2 OS cells stably overexpressing wild-type (FANCM+) or FANCM mutants. Scatterplot bars represent the mean±SEM. Out of 3 experiments, n>100 metaphases scored for each mutant, *p<0.05, **p<0.005, Mann-Whitney test. (d) Representative dot blots and quantitation of C-circle assays in U-2 OS cells stably overexpressing wild-type (FANCM+) or FANCM domain mutants. C-circles were normalized to the mean of vector control. Error bars represent mean±SEM from n=3 experiments, *p<0.05, **p<0.005, Student's t-test. (e) Single molecule analysis of telomeric extension events (top panel) and length of extension events (bottom panel) in U-2 OS cells stably overexpressing wild-type (FANCM+) or FANCM domain mutants. Error bars represent mean±SEM of n≥350 fibers out of 3 experiments, *p<0.05, **p<0.005, Student's t-test.
(§2) FIG. 23. Defects in ALT phenotype suppression are exacerbated by overexpression of a double-mutant (DM) FANCM, in which both the MM2 domain (FF>AA) and the translocase domain (K117R) of FANCM are mutated. (a) Representative dot blots and quantitation of C-circle assays in U-2 OS cells stably overexpressing wild-type (WT) or FANCM domain mutants (K117R, FF>AA; DM). C-circles were normalized to the mean of empty vector control (EV). Error bars represent mean±SEM from n=3 experiments, *p<0.05, **p<0.005, Student's t-test. (b) Quantitation of APB frequency in U-2 OS cells overexpressing wild-type (WT) or FANCM mutants. Scatterplot bars represent the mean±SEM. Out of three experiments, n=150 cells were scored for each mutant, **p<0.005, Mann-Whitney test. (c) Quantitation of metaphase-TIFs in U-2 OS cells stably overexpressing wild-type (WT) or FANCM mutants. Scatterplot bars represent the mean±SEM. Out of three experiments, n=120 metaphases scored for each mutant, *p<0.05, **p<0.005, Mann-Whitney test. All statistical comparisons are relative to EV control.
(§3) Empty vector and wild-type FANCM (pCMV6-Myc-DDK) constructs were obtained from Origene Technologies. Wild type FANCM (SEQ ID NO: 2) and FANCM mutants (SEQ ID NOs: 19 to 28) were cloned into the pLenti-C-Myc-DDK-IRES-Neo backbone (Origene Technologies) by restriction enzyme subcloning of gene blocks synthesized by Integrated DNA Technologies (IDT). Lentivirus was produced by the Vector and Genome Engineering Facility (Children's Medical Research Institute). For stable overexpression, cells were transduced with lentivirus, allowed to recover for 24 h, and subject to G418 selection. Cells were maintained in G418 to ensure sustained overexpression.
C-circles were amplified with Phi29 polymerase using dATP, dTTP and dGTP overnight. Products were dot blotted onto Biodyne B membranes (Pall) and pre-hybridised in PerfectHyb Plus (Sigma) for at least 30 min. Radiolabeled telomeric C-probe was then added and blots were hybridized overnight at 37° C. (Henson et al., 2009). Blots were washed with 0.5×SSC, 0.1% SDS three times for 5 min each then exposed to phosphor screen. Imaging was performed on the Typhoon FLA 7000 system (GE Healthcare) with a PMT of 750 V.

U-2 OS cells [2] = test: Metaphase-TIFs in cells overexpressing FANCM variants; details: stable overexpression
Description: as §1, §2, §3
(§4) Indirect IF and telomere FISH were performed on both interphase nuclei and metaphase spreads. For interphase IF experiments, cells were grown on coverslips or LabTek chamber slides (Thermo Scientific). Slides were prepared as described in Sobinoff et al., 2017. Cells on coverslips were washed twice with PBS, permeabilized with KCM buffer (120 mM KCl, 20 mM NaCl, 10 mM Tris pH 7.5, 0.1% Triton), washed again with PBST and PBS, then fixed with ice-cold 4% formaldehyde PBS solution at room temperature for 10 min. […]

U-2 OS cells [3] = test: APB frequency and APB telomere intensity in cells overexpressing FANCM variants; details: overexpression
Description: (a) Western immunoblotting of stable wild-type FANCM (FANCM+) or FANCM mutant overexpression in U-2 OS cells. […] (b) TRF analysis of U-2 OS cells overexpressing wild-type (FANCM+) or FANCM mutants. Gels were hybridized under native and denatured conditions with radiolabelled telomeric probes to detect the C-strand and G-strand. (c) Tukey boxplots of APB frequency (top panel) and mean APB telomere intensity (bottom panel) in U-2 OS cells overexpressing wild-type (FANCM+) or FANCM mutants. Out of 3 experiments, n=150 cells scored per variant, *p<0.05, **p<0.005, Mann-Whitney test.
as §2, §3
Indirect IF and telomere FISH were performed on both interphase nuclei and metaphase spreads. For interphase IF experiments, cells were grown on coverslips or LabTek chamber slides (Thermo Scientific). Slides were prepared as described in Sobinoff et al., 2017. Cells on coverslips were washed twice with PBS, permeabilized with KCM buffer (120 mM KCl, 20 mM NaCl, 10 mM Tris pH 7.5, 0.1% Triton), washed again with PBST and PBS, then fixed with ice-cold 4% formaldehyde PBS solution at room temperature for 10 min. Coverslips were blocked with antibody-dilution buffer (20 mM Tris-HCl, pH 7.5, 2% (w/v) BSA, 0.2% (v/v) fish gelatin, 150 mM NaCl, 0.1% (v/v) Triton X-100 and 0.1% (w/v) sodium azide) and 0.1 mg/ml RNaseA for 30 min at 37° C. Cells were incubated with primary antibodies (Supplementary Table 1) for 1 h at 37° C. or 2 h at room temperature, then incubated with 1:1,000 dilution of appropriate Alexa Fluor conjugated secondary antibodies (Thermo Scientific). Coverslips were rinsed with PBS then fixed with 4% (v/v) formaldehyde at room temperature prior to telomere FISH. Coverslips were subjected to a graded ethanol series (75% for 2 min, 85% for 2 min, and 100% for 2 min) and allowed to air-dry. […]

U-2 OS cells [4] = test: Fragile telomeres in cells overexpressing FANCM variants; details: stable overexpression
Description: as §1, §3
as §4, with “min. Coverslips were blocked with antibody-dilution buffer (20 mM Tris-HCl, pH 7.5, 2% (w/v) BSA, 0.2% (v/v) fish gelatin, 150 mM NaCl, 0.1% (v/v) Triton X-100 and 0.1% (w/v) sodium azide) and 0.1 mg/ml RNaseA for 30 min at 37° C.” for “min.”

Row | Substance | C-circle levels (U-2 OS cells [1]) | telomere dysfunction (metaphase-TIFs) (U-2 OS cells [2]) | number of APBs (U-2 OS cells [3]) | number of fragile telomeres (telomere fragility) (U-2 OS cells [4])
1 | HhH: FANCM HhH domain mutant (SEQ ID NO: 28), deletion at amino acid residues 1971-2048 | did not cause a change in C-circle levels |  |  | 
2 | DM: double mutant FANCM with both the K117R substitution and the FF>AA double substitution (SEQ ID NO:35) | significantly greater increase in C-circles | enhanced telomere dysfunction | greater increase in the number of APBs | 
3 | wild-type FANCM: wild type FANCM (SEQ ID NO: 2) stably overexpressed by lentivirus | significant decrease in C-circle generation | significant decrease |  | significant decrease
4 | MID: FANCM MID domain mutant (SEQ ID NO: 21) substituted at V749G/H751G |  | significantly increased |  | significantly increased
5 | ERCC4: FANCM ERCC4 domain mutant (SEQ ID NO: 27), deletion at amino acid residues 1815-1922 | did not cause a change in C-circle levels |  |  | 
